Calls of active or inactive are those of the source. The rule behind the calls is not given here.
Tests used:
[1] = tested on: HeLa; assay: Induction of apoptosis in human HeLa cells assessed as reduction in F-actin expression at 0.75 to 0.5 uM incubated for 18 hrs by immunostaining assay; format: cell-based
[2] = tested on: HeLa; assay: Induction of apoptosis in human HeLa cells assessed as reduction in vinculin expression at 0.75 to 0.5 uM incubated for 18 hrs by immunostaining assay; format: cell-based
[3] = tested on: HeLa; assay: Induction of apoptosis in human HeLa cells assessed as reduction in F-actin expression at 0.5 uM incubated for 18 hrs followed by red light irradiation measured after 3 hrs by immunostaining assay; format: functional, cell-based
[4] = tested on: HeLa; assay: Induction of apoptosis in human HeLa cells assessed as reduction in vinculin expression at 0.5 uM incubated for 18 hrs followed by red light irradiation measured after 3 hrs by immunostaining assay; format: functional, cell-based
[5] = tested on: HeLa; assay: Induction of necrosis in human HeLa cells assessed as disorganization of F-actin at 0.75 uM incubated for 18 hrs followed by red light irradiation measured after 24 hrs by immunostaining; format: functional, cell-based
[6] = tested on: HeLa; assay: Induction of necrosis in human HeLa cells assessed as cellular damage at 0.75 uM incubated for 18 hrs followed by red light irradiation measured after 24 hrs; format: functional, cell-based
[7] = tested on: HeLa; assay: Induction of apoptosis in human HeLa cells assessed as reduction in vinculin expression at 0.5 uM incubated for 18 hrs followed by red light irradiation measured after 24 hrs by immunostaining assay; format: functional, cell-based
[8] = tested on: HeLa; assay: Induction of apoptosis in human HeLa cells assessed as membrane bubble at 0.5 uM incubated for 18 hrs followed by red light irradiation measured after 6 hrs by immunostaining assay; format: functional, cell-based
[9] = tested on: HeLa; assay: Induction of apoptosis in human HeLa cells assessed as apoptotic chromatin at 0.5 uM incubated for 18 hrs followed by red light irradiation measured after 6 hrs by immunostaining assay; format: functional, cell-based
[10] = tested on: HeLa; assay: Induction of apoptosis in human HeLa cells assessed as reduction in F-actin expression at 0.5 uM incubated for 18 hrs followed by red light irradiation measured after 6 hrs by immunostaining assay; format: functional, cell-based
[11] = tested on: HeLa; assay: Induction of apoptosis in human HeLa cells assessed as reduction in vinculin expression at 0.5 uM incubated for 18 hrs followed by red light irradiation measured after 6 hrs by immunostaining assay; format: functional, cell-based
[12] = tested on: HeLa; assay: Induction of apoptosis in human HeLa cells assessed as microtubule alteration at 0.75 uM incubated for 18 hrs followed by red light irradiation after 3 to 24 hrs by […]; format: functional, cell-based
[13] = tested on: HeLa; assay: Induction of apoptosis in human HeLa cells assessed as microtubule alteration at 0.5 uM incubated for 18 hrs followed by red light irradiation after 6 to 24 hrs by […]; format: functional, cell-based
[14] = tested on: HeLa; assay: Induction of apoptosis in human HeLa cells assessed as reduction in cell volume at 0.5 uM incubated for 18 hrs followed by red light irradiation measured after 3 hrs by Hoechst-33258 staining; format: functional, cell-based
[15] = tested on: HeLa; assay: Induction of necrosis in human HeLa cells at 0.5 to 0.75 uM incubated for 18 hrs by Hoechst-33258 staining; format: cell-based
[16] = tested on: HeLa; assay: Induction of necrosis in human HeLa cells at 0.75 uM incubated for 18 hrs followed by red light irradiation by Hoechst-33258 staining; format: functional, cell-based
[17] = tested on: HeLa; assay: Induction of apoptosis in human HeLa cells at 0.5 uM incubated for 18 hrs followed by red light irradiation by Hoechst-33258 staining; format: functional
[18] = tested on: HeLa; assay: Induction of apoptosis in human HeLa cells assessed as membrane blebbing at 0.5 uM incubated for 18 hrs prior to red light irradiation measured after 6 hrs by phase contrast microscopy; format: functional, cell-based
[19] = tested on: HeLa; assay: Induction of apoptosis in human HeLa cells assessed as fragmented chromatin at 0.5 uM incubated for 18 hrs prior to red light irradiation measured after 6 hrs by immunofluorescence method; format: functional, cell-based
[20] = tested on: HeLa; assay: Induction of apoptosis in human HeLa cells assessed as swollen mitochondria at 0.5 uM incubated for 18 hrs prior to red light irradiation measured after 3 hrs by immunofluorescence method; format: functional, cell-based
[21] = tested on: HeLa; assay: Induction of apoptosis in human HeLa cells at 0.5 uM incubated for 18 hrs prior to red light irradiation measured after 6 hrs by TUNEL assay; format: functional, cell-based
[22] = tested on: HeLa; assay: Induction of apoptosis in human HeLa cells at 0.5 uM incubated for 18 hrs prior to red light irradiation measured after 24 hrs; format: functional
[23] = tested on: HeLa; assay: Induction of apoptosis in human HeLa cells assessed as relocalization of proapoptotic Bax protein within mitochondria at 0.5 uM incubated for 18 hrs prior to red light irradiation measured after 3 to 24 hrs by indirect immunofluorescence; format: functional, cell-based
[24] = tested on: HeLa; assay: Induction of necrosis in human HeLa cells assessed as breaking of giant bubble at 0.75 uM incubated for 18 hrs prior to red light irradiation measured after 6 hrs by phase contrast microscopy; format: functional, cell-based
[25] = tested on: HeLa; assay: Induction of necrosis in human HeLa cells assessed as chromatin condensation at 0.75 uM incubated for 18 hrs prior to red light irradiation measured after 1 hr by Hoechst-33258 staining; format: functional, cell-based
[26] = tested on: HeLa; assay: Induction of necrosis in human HeLa cells assessed as giant bubble formation at 0.75 uM incubated for 18 hrs prior to red light irradiation measured after 1 hr by phase contrast microscopy; format: functional, cell-based
[27] = tested on: HeLa; assay: Induction of necrosis in human HeLa cells at 0.5 uM incubated for 18 hrs prior to red light irradiation measured after 6 to 24 hrs by Hoechst-33258 staining; format: functional, cell-based
[28] = tested on: HeLa; assay: Induction of necrosis in human HeLa cells at 0.5 uM incubated for 18 hrs prior to red light irradiation measured after 6 to 24 hrs by neutral red staining; format: functional, cell-based
[29] = tested on: HeLa; assay: Induction of apoptosis in human HeLa cells at 0.5 uM incubated for 18 hrs prior to red light irradiation measured after 6 to 24 hrs by Hoechst-33258 staining; format: functional, cell-based
[30] = tested on: HeLa; assay: Induction of apoptosis in human HeLa cells at 0.5 uM incubated for 18 hrs prior to red light irradiation measured after 6 to 24 hrs by neutral red staining; format: functional, cell-based
[31] = tested on: HeLa; assay: Induction of apoptosis in human HeLa cells assessed as nuclear fragmentation at 0.5 uM incubated for 18 hrs prior to red light irradiation measured after 3 hrs by Hoechst-33258 staining; format: functional, cell-based
[32] = tested on: HeLa; assay: Induction of apoptosis in human HeLa cells assessed as chromatin condensation at 0.5 uM incubated for 18 hrs prior to red light irradiation measured after 3 hrs by Hoechst-33258 staining; format: functional, cell-based

SMILES: COCc1ccc(C2=Cc3nc2ccc2[nH]c(cc2-c2ccc(C[n+]4ccccc4)cc2)c2nc(ccc4[nH]c3cc4-c3ccc(C[n+]4ccccc4)cc3)C(c3ccc(C[n+]4ccccc4)cc3)=C2)cc1.[Br-].[Br-].[Br-]
- Activity [1]: Non-toxic
- Activity [2]: Non-toxic
- Activity [3]: Active
- Activity [4]: Active
- Activity [5]: Active
- Activity [6]: Active
- Activity [7]: Active
- Activity [8]: Active
- Activity [9]: Active
- Activity [10]: Active
- Activity [11]: Active
- Activity [12]: Active
- Activity [13]: Active
- Activity [14]: Active
- Activity [15]: Non-toxic
- Activity [16]: Active
- Activity [17]: 70%
- Activity [18]: Active
- Activity [19]: Active
- Activity [20]: Active
- Activity [21]: Active
- Activity [22]: 70%
- Activity [23]: Active
- Activity [24]: Active
- Activity [25]: Active
- Activity [26]: Active
- Activity [27]: Active
- Activity [28]: Active
- Activity [29]: Active
- Activity [30]: Active
- Activity [31]: Active
- Activity [32]: Active
